Laboratory results reported in paper PMC11790914, “Chemogenomics for steroid hormone receptors (NR3)” (Communications Chemistry, 2025).
Several values for one entry are separate records, joined by “and”; a condition that tells them apart may be missing. Equal values may be shown once.

Tests used:
HEK293T cells [1] = assay: Cytotoxicity: necrosis induction (red fluorescent dye for permeable plasma membranes); format: cell-based; conditions: 24 h, necrotic cell count normalized to 0.1% DMSO, single replicates;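 note: compounds applied in DMEM high glucose with 0.1% FCS and 0.1% DMSO, necrotic HEK293T cells counted by red staining of cells whose plasma membranes had become permeable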
ABL1 = target: T1, ABL1 (Homo sapiens, UniProt P00519); assay: Liability panel screening by DSF: ABL1; format: binding; conditions: DSF, 20 µM, n=2
T1 construct: made in house
How it was run: (§1)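 Recombinant protein at 2 µM in 10 mM HEPES pH 7.5 with 500 mM NaCl was mixed with SYPRO Orange (1:1000) and heated at 3 °C/min up to 85 °C. Tm was taken as the Boltzmann-fit inflection point. Shifts are ∆Tm in K from technical duplicates.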

AURKA = target: T2, AURKA (Homo sapiens, UniProt O14965); assay: Liability panel screening by DSF: AURKA; format: binding; conditions: DSF, 20 µM, n=2
T2 construct: made in house
T2 sequence (O14965 1-403): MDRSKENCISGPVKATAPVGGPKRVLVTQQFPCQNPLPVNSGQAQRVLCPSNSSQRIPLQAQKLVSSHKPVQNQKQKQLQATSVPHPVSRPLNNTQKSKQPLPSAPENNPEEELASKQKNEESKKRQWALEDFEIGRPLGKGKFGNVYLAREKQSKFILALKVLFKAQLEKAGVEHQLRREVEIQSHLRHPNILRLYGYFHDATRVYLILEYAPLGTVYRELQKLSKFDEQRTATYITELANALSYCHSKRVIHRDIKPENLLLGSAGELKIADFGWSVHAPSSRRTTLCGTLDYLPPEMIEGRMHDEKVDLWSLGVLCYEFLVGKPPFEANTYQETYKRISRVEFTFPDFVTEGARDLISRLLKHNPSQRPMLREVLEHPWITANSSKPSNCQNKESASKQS
How it was run: as §1

CDK2 = target: T3, CDK2 (Homo sapiens, UniProt P24941); assay: Liability panel screening by DSF: CDK2; format: binding; conditions: DSF, 20 µM, n=2
T3 construct: made in house
How it was run: as §1

FGFR3 = target: T4, FGFR3 (Homo sapiens, UniProt P22607); assay: Liability panel screening by DSF: FGFR3; format: binding; conditions: DSF, 20 µM, n=2
T4 construct: made in house
How it was run: as §1

GSK3B = target: T5, GSK3B (Homo sapiens, UniProt P49841); assay: Liability panel screening by DSF: GSK3B; format: binding; conditions: DSF, 20 µM, n=2
T5 construct: made in house

BRD4 = target: T6, BRD4 (Homo sapiens, UniProt O60885); assay: Liability panel screening by DSF: BRD4; format: binding; conditions: DSF, 20 µM, n=2
T6 construct: This panel comprised ten highly ligandable kinases and bromodomains; made in house
How it was run: as §1

BRPF1 = target: T7, BRPF1 (Homo sapiens, UniProt P55201); assay: Liability panel screening by DSF: BRPF1; format: binding; conditions: DSF, 20 µM, n=2
T7 construct: This panel comprised ten highly ligandable kinases and bromodomains; made in house
T7 sequence (P55201 628-732 limits assumed): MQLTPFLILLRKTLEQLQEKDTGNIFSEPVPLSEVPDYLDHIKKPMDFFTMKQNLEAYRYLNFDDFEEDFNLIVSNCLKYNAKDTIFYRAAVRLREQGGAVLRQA
How it was run: as §1

CSNK1D = target: T8, CSNK1D (Homo sapiens, UniProt P48730); assay: Liability panel screening by DSF: CSNK1D; format: binding; conditions: DSF, 20 µM, n=2
T8 construct: made in house
How it was run: as §1

MAPK1 = target: T9, MAPK1 (Homo sapiens, UniProt P28482); assay: Liability panel screening by DSF: MAPK1; format: binding; conditions: DSF, 20 µM, n=2
T9 construct: made in house
How it was run: as §1

TRIM24 = target: T10, TRIM24 (Homo sapiens, UniProt O15164); assay: Liability panel screening by DSF: TRIM24; format: binding; conditions: DSF, 20 µM, n=2
T10 construct: This panel comprised ten highly ligandable kinases and bromodomains; made in house
T10 sequence (O15164 899-1004 limits assumed): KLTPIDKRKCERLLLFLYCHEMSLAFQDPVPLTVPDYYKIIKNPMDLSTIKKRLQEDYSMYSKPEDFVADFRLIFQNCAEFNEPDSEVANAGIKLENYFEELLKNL
How it was run: as §1

[2] = system: NF-κB activity in HEK293 NF-κB reporter cells; assay: NF-kB activity assay (GFP reporter, ionomycin/PMA); format: cell-based; conditions: for Mean NFκB response: n=3
How it was run: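 Reporter readout: GFP-expressing cells normalized to confluence, imaged every 90 min across 24 h after ionomycin (100 ng/mL)/PMA (10 ng/mL) stimulation of HEK293 cells pre-treated 4 h with compound (0.1% DMSO); triplicate independent experiments.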

[3] = system: ATF6 activity in Hela ATF6 reporter cells; assay: Endoplasmic reticulum stress assay (ATF6 Renilla luciferase reporter, tunicamycin); format: cell-based; conditions: single replicates n=1 to n=5
How it was run: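 ER stress was induced by 100 ng/mL tunicamycin added 4 h after compound (0.1% DMSO) to HeLa ATF6 reporter cells. After 18 h more, Renilla luciferase signal was read and expressed relative to DMSO control, n=5 biological replicates.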

NR3A1 (ERα) = conditions: read-out: Potency [nM] EC50, NR3A1 (ERα); cited from earlier work
NR3A2 (ERβ) = conditions: (lit.); ref Supplementary Table 1; read-out: Potency [nM] EC50, NR3A2 (ERβ); cited from earlier work
HEK293T cells [4] = assay: Cytotoxicity: apoptosis induction (caspase-3/7 DEVD fluorogenic DNA dye); conditions: HEK293T, 24 h, apoptotic cell count normalized to 0.1% DMSO, single replicates
NR3C1 (GR) = conditions: ref Supplementary Table 1, cited from earlier work
NR3C3 (PR) = conditions: cited from earlier work
[5] = known off-target outside the NR family at the recommended concentration; ref Supplementary Table 1 (superscript references); cited from earlier work
NR3C4 (AR) = conditions: ref Supplementary Table 1, cited from earlier work
HEK293T cells [6] = assay: Cytotoxicity: metabolic activity (WST-8 / CCK-8 assay); conditions: 0.3 µM; HEK293T, 24 h; WST-8; normalized to 0.1% DMSO; single replicates
HEK293T cells [7] = assay: Cytotoxicity: growth-rate (change in confluence over 24 h); conditions: 0.3 µM, normalized to 0.1% DMSO control, single replicates (n=1...)

T9 sequence (P28482 whole entry, species assumed): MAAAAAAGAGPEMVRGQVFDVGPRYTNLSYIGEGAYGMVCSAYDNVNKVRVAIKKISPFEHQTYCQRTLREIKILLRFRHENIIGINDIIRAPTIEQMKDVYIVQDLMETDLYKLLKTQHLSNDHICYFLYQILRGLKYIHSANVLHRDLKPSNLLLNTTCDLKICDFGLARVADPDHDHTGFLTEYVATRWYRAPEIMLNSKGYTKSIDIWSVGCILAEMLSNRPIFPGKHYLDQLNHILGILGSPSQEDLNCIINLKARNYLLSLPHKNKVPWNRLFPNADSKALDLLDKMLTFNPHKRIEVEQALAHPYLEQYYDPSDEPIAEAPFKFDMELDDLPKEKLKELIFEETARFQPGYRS
T8 sequence (P48730 whole entry, species assumed): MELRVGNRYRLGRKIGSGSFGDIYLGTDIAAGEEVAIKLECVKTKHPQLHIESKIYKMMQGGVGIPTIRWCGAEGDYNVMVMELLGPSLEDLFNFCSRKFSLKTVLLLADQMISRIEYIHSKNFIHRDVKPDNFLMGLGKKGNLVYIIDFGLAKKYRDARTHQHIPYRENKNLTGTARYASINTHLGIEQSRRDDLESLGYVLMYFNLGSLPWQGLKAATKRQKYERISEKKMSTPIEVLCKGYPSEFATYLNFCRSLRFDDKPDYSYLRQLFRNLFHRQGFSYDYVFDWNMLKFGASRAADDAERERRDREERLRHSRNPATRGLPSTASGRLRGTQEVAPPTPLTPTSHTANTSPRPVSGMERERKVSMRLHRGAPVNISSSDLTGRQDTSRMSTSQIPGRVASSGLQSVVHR
T4 sequence (P22607 23-806, species assumed): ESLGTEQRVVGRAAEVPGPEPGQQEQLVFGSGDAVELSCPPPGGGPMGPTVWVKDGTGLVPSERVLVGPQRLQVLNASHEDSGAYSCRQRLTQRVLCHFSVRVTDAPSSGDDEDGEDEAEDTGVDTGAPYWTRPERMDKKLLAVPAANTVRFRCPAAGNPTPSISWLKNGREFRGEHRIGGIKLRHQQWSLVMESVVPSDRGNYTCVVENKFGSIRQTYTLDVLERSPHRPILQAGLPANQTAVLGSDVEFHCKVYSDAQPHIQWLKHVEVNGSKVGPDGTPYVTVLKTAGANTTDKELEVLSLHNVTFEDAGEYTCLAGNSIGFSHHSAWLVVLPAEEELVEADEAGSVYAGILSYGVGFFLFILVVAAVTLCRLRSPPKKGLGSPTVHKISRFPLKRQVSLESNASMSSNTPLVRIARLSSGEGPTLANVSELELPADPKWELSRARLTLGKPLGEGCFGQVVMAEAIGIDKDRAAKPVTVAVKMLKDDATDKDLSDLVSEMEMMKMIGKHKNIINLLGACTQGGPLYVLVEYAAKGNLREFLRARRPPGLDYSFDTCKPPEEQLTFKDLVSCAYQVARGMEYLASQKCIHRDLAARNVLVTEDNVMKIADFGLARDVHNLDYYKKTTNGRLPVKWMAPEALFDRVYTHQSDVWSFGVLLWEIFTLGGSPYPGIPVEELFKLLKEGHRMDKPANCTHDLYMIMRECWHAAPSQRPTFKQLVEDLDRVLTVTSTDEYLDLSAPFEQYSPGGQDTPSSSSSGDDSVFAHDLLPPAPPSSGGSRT
T5 sequence (P49841 whole entry, species assumed): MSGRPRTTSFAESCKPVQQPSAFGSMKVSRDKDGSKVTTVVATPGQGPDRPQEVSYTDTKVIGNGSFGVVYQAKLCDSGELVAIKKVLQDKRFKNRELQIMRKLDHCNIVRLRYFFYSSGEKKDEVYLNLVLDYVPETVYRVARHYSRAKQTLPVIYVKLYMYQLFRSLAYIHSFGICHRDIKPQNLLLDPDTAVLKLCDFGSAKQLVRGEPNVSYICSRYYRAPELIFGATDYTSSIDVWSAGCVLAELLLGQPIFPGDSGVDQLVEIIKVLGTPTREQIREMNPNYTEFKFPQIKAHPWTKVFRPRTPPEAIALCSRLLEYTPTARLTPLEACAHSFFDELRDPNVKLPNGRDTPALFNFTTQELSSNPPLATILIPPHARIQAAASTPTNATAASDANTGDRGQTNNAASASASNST
T1 sequence (P00519 whole entry, species assumed): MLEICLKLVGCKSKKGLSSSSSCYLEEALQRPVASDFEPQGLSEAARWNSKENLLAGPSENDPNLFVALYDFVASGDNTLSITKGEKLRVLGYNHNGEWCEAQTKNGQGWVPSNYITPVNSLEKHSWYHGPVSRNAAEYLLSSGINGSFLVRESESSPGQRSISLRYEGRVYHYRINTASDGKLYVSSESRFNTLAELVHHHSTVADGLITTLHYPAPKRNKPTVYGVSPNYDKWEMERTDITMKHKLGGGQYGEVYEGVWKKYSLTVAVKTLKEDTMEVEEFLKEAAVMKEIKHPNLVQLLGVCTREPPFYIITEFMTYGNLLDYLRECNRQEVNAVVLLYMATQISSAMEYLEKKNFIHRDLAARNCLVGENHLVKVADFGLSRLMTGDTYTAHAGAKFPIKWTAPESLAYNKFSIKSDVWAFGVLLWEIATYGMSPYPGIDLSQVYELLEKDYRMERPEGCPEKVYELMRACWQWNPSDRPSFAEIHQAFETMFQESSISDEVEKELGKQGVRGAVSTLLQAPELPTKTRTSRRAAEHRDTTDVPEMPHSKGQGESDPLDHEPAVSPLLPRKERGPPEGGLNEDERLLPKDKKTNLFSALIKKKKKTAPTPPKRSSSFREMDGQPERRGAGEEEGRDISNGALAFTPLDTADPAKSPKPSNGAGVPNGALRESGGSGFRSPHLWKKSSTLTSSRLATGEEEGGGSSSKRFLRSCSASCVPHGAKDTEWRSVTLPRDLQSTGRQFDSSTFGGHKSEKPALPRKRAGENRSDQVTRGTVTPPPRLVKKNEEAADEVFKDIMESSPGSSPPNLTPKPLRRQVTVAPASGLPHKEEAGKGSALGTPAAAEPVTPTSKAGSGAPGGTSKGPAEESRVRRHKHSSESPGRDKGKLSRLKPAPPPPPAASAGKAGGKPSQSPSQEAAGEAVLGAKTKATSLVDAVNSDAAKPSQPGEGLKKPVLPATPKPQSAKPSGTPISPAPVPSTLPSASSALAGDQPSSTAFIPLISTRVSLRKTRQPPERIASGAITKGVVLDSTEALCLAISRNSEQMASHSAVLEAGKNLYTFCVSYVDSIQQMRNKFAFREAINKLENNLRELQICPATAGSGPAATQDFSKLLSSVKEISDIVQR

Cc1c(-c2ccc(O)cc2)n(Cc2ccc(OCCN3CCCCCC3)cc2)c2ccc(O)cc12 [Bazedoxifene]
Necrosis induction [NI] (HEK293T cells [1]; 1 µM): 1.13 and 0.86 and 0.78 and 1.09
ΔTm at 20 µM (ABL1; read-out: Mean ΔTM ABL1): -0.21 °C
ΔTm at 20 µM (AURKA; read-out: Mean ΔTM AURKA): 0.09 °C
ΔTm at 20 µM (CDK2; read-out: Mean ΔTM CDK2): -0.64 °C
ΔTm at 20 µM (FGFR3; read-out: Mean ΔTM FGFR3): -0.69 °C
ΔTm at 20 µM (GSK3B; read-out: Mean ΔTM GSK3B): 0.0162 °C
ΔTm at 20 µM (BRD4; read-out: Mean ΔTM BRD4): 0.43 °C
ΔTm at 20 µM (BRPF1; read-out: Mean ΔTM BRPF1): -0.07 °C
ΔTm at 20 µM (CSNK1D; read-out: Mean ΔTM CSNK1D): 0.42 °C
ΔTm at 20 µM (MAPK1; read-out: Mean ΔTM MAPK1): 0.08 °C
ΔTm at 20 µM (TRIM24; read-out: Mean ΔTM TRIM24): -2.05 °C
Mean NFκB response ([2]; 1 µM, 1,5 h): 2824.44 GFP+-cells/confluence ∙ 1000
Mean NFκB response ([2]; 1 µM, 4,5 h): 3791.70 GFP+-cells/confluence ∙ 1000
Mean NFκB response ([2]; 1 µM, 7,5 h): 7416.63 GFP+-cells/confluence ∙ 1000
Mean NFκB response ([2]; 1 µM, 10,5 h): 14689.03 GFP+-cells/confluence ∙ 1000
Mean NFκB response ([2]; 1 µM, 13,5 h): 19525.92 GFP+-cells/confluence ∙ 1000
Mean NFκB response ([2]; 1 µM, 16,6 h): 23266.53 GFP+-cells/confluence ∙ 1000
Mean NFκB response ([2]; 1 µM, 19,5 h): 26260.00 GFP+-cells/confluence ∙ 1000
Mean NFκB response ([2]; 1 µM, 22,5 h): 28446.67 GFP+-cells/confluence ∙ 1000
Mean NFκB response ([2]; 1 µM, 3 h): 3117.94 GFP+-cells/confluence ∙ 1000
Mean NFκB response ([2]; 1 µM, 6 h): 5066.30 GFP+-cells/confluence ∙ 1000
Mean NFκB response ([2]; 1 µM, 9 h): 11293.98 GFP+-cells/confluence ∙ 1000
Mean NFκB response ([2]; 1 µM, 12 h): 17230.27 GFP+-cells/confluence ∙ 1000
Mean NFκB response ([2]; 1 µM, 15 h): 21680.82 GFP+-cells/confluence ∙ 1000
Mean NFκB response ([2]; 1 µM, 18 h): 24611.25 GFP+-cells/confluence ∙ 1000
Mean NFκB response ([2]; 1 µM, 21 h): 27073.33 GFP+-cells/confluence ∙ 1000
Mean NFκB response ([2]; 1 µM, 24 h): 29033.33 GFP+-cells/confluence ∙ 1000
NF-κB activity (inflammatory response to ionomycin/PMA) ([2]; HEK293 NF-κB reporter cells, compounds at recommended concentrations, imaged over 24 h, n = 3): reducing the inflammatory response
activity at 1 µM ([3]; Homo sapiens, HeLa, 1 µM, read-out: ER stress [rel. ATF6 activity]): 100%
EC50 (NR3A1 (ERα)): 26 ± 14 nM
EC50 (NR3A2 (ERβ)): 99 ± 53 nM
Apoptosis induction [AI] (HEK293T cells [4]; 1 µM): 0.65 and 1.17 and 0.76 and 1.01 and 0.89 and 1.49

Medroxyprogesterone
Necrosis induction [NI] (HEK293T cells [1]; 0.3 µM): 0.91 (2×) and 1.04 and 0.81
Mean ΔTM ABL1 (ABL1): -0.24 K
Mean ΔTM AURKA (AURKA): 0.0165 K
Mean ΔTM CDK2 (CDK2): -0.39 K
Mean ΔTM FGFR3 (FGFR3): -0.32 K
Mean ΔTM GSK3B (GSK3B): -0.99 K
Mean ΔTM BRD4 (BRD4): -1.17 K
Mean ΔTM BRPF1 (BRPF1): 0.25 K
Mean ΔTM CSNK1D (CSNK1D): -0.11 K
Mean ΔTM MAPK1 (MAPK1): 0.18 K
Mean ΔTM TRIM24 (TRIM24): -0.75 K
Mean NFκB response ([2]; 0.3 µM, 1,5 h): 2817.45 GFP+-cells/confluence ∙ 1000
Mean NFκB response ([2]; 0.3 µM, 4,5 h): 3349.18 GFP+-cells/confluence ∙ 1000
Mean NFκB response ([2]; 0.3 µM, 7,5 h): 6986.39 GFP+-cells/confluence ∙ 1000
Mean NFκB response ([2]; 0.3 µM, 10,5 h): 17788.45 GFP+-cells/confluence ∙ 1000
Mean NFκB response ([2]; 0.3 µM, 13,5 h): 26308.75 GFP+-cells/confluence ∙ 1000
Mean NFκB response ([2]; 0.3 µM, 16,6 h): 32691.58 GFP+-cells/confluence ∙ 1000
Mean NFκB response ([2]; 0.3 µM, 19,5 h): 37046.67 GFP+-cells/confluence ∙ 1000
Mean NFκB response ([2]; 0.3 µM, 22,5 h): 41020.00 GFP+-cells/confluence ∙ 1000
Mean NFκB response ([2]; 0.3 µM, 3 h): 2918.53 GFP+-cells/confluence ∙ 1000
Mean NFκB response ([2]; 0.3 µM, 6 h): 4035.46 GFP+-cells/confluence ∙ 1000
Mean NFκB response ([2]; 0.3 µM, 9 h): 12242.08 GFP+-cells/confluence ∙ 1000
Mean NFκB response ([2]; 0.3 µM, 12 h): 21999.86 GFP+-cells/confluence ∙ 1000
Mean NFκB response ([2]; 0.3 µM, 15 h): 29772.36 GFP+-cells/confluence ∙ 1000
Mean NFκB response ([2]; 0.3 µM, 18 h): 34990.00 GFP+-cells/confluence ∙ 1000
Mean NFκB response ([2]; 0.3 µM, 21 h): 39166.67 GFP+-cells/confluence ∙ 1000
Mean NFκB response ([2]; 0.3 µM, 24 h): 41696.67 GFP+-cells/confluence ∙ 1000
ER stress [rel. ATF6 activity] ([3]; 0.3 µM): 0.98 and 0.97 and 1.05 and 0.94 and 0.96
EC50 (NR3C1 (GR); (lit.), read-out: Potency [nM] EC50, NR3C1 (GR)): 10 ± 1 nM
rel. activity from literature, NR3C1 (GR): % of dexamethasone (DXM) (NR3C1 (GR); of dexamet./DXM): 157 ± 22%
EC50 (NR3C3 (PR); (lit.), ref Supplementary Table 1, read-out: Potency [nM] EC50, NR3C3 (PR)): 0.15 ± 0.05 nM
rel. activity from literature, NR3C3 (PR): % of PGN (NR3C3 (PR); of PGN (progesterone)): 80 ± 7%
Other off-target at recom. conc. [5]: 17β-HSD2 and 17β-HSD3 and 17β-HSD1
rel. activity from literature, NR3C4 (AR): % of DHT (NR3C4 (AR); of DHT (dihydrotestosterone)): 159 ± 10%
IC50 (NR3C4 (AR); read-out: Potency [nM] IC50, NR3C4 (AR), (lit.)): 6 ± 1 nM
Metabolic activity [MA] (HEK293T cells [6]): 0.94 and 1.01 and 0.93 and 1.08
Growth rate [GR] (HEK293T cells [7]): 0.94 and 1.01 and 1.09 and 1.40 and 1.04 (2×) and 0.87 and 1.11 and 0.76 and 1.34
Apoptosis induction [AI] (HEK293T cells [4]; 0.3 µM): 0.76 and 0.77 and 1.07 and 0.74 (2×) and 0.88
